# In patent US10197557B2, “Small molecules for endothelial cell activation” (The Regents of the University of California, priority 2011, dated 2019):
# System: Primary human umbilical endothelial cells (EC)
# Assay: Biological platform: EC-monocyte co-culture, flow cytometry profiling (CD40, CD209, CD163) across 10 parameters
# Assay type: cell-based
# Conditions: Prestwick library of FDA approved compounds (FIG. 1B)
# Experimental: The biological platform or assay described herein can be embodied in different ways (see, e.g., FIGS. 1 and 9). An embodiment of the biological platform of invention is provided below: • 1. Primary human umbilical endothelial cells (EC) are adhered in 96 or 384-well plates at confluency for 2 hours. • 2. Control stimuli (or compounds of interest) are added to EC for 5 hours. • 3. Compounds are removed, EC washed, and primary human peripheral blood monocytes are added. • 4. After 24 hours, 25 μl of supernatant is removed for MIP1α and MIP1β analysis. • 5. After 42-48 total hours of co-culture, cells are harvested for flow cytometry. • 6. Cells are labeled with: CD40, CD209, and CD163. • a. Parameter 1: Gate on EC/monocytes by using FSC vs SSC on whole co-culture population • b. Parameter 2: Use SSC vs. CD40 to separate monocytes from EC. Note: loss of EC population reflects compound toxicity. • c. Parameter 3: Gate on CD40+ monocytes • d. Parameter 4: Determine CD40 MFI on CD40+ macrophages • e. Parameter 5: Determine CD209 MFI on CD40+ macrophages • f. Parameter 6: Determine CD163 MFI on CD40+ macrophages • g. Parameter 7: Subtract vehicle control MFIs from each sample of interest. In the example below (FIGS. 2A and 2B), EC stimulation with IFNγ may promote EC-triggered MΦ with CD40 MFI=40, CD209 MFI=60, CD163=10. DMSO treated EC promote MΦ with CD40=20, CD209 MFI=30, and CD163=100. […]
smiles,measurement,value
CN(C)C(=N)N=C(N)N [metformin],position in the profile of pro-inflammatory (enhanced) and anti-inflammatory (dampening) compounds,dampening subset
